US10010558B2, “Frankiamicin A compositions and methods” (STC.UNM, priority 2015, dated 2018)
Where two headings read alike, the source gives them in different places.

What was measured:
Type in all cases: cell-based
S. pyogenes = test: Antimicrobial MTT viability assay, S. pyogenes
MC = test: Anticancer MTT viability assay, MC cells; conditions: MC cancer cell line, 48 hours incubation, 0-100 μM
S. aureus = test: Antimicrobial MTT viability assay, S. aureus; conditions: for MIC: S. aureus
Description: Antimicrobial and anticancer assays were conducted by quantifying viability of cells exposed to frankiamicin A (2-fold serial diluted in DMSO) at concentrations ranging from 0-100 μM using an MTT assay (Frolova et al., 2013, J Med Chem 56:6886-6900). For antimicrobial assays, a liquid culture of each test strain was grown overnight at 37° C. in TSB media in a rotary incubator. The resulting culture was diluted 1:100 into fresh media and 100 μL aliquots were transferred to a 96-well plate. Serial diluted compound was added to individual wells and cells were incubated at 37° C. for either 6 hours or 18 hours prior to MTT assay. Anticancer assays were conducted using approximately 4000 cells incubated overnight at 37° C. in 100 μL DMEM media supplemented with 10% FBS, adding serial diluted compound, and incubating for 48 hours prior to MTT assay. Assays of T. cruzi (ATCC 30013) were conducted by growing cells unshaken at 25° C. in ATCC Medium 1029 (LIT Medium) for five days, diluting 1:10 into fresh media, adding 100 μM frankiamicin A, incubating for an additional eight days, and assessing cell viability by microscopy using an untreated control for comparison.

C. albicans = test: Antimicrobial MTT viability assay, C. albicans; conditions: 0-100 μM
Jurk = test: Anticancer MTT viability assay, Jurk cells; conditions: Jurk cancer cell line, 48 hours incubation, 0-100 μM
Y. pestis = system: Y. pestis
He = test: Anticancer MTT viability assay, He cells; conditions: He cancer cell line, 48 hours incubation, 0-100 μM
[1] = system: methicillin-resistant S. aureus (MRSA); test: Antimicrobial MTT viability assay, MRSA; conditions: for MIC: MRS(A)
A. baumanii = test: Antimicrobial MTT viability assay, A. baumanii
P. aeruginosa = test: Antimicrobial MTT viability assay, P. aeruginosa
T. cruzi (ATCC 30013) = test: T. cruzi viability assay by microscopy; conditions: 100 μM frankiamicin A, eight days

## frankiamicin A
S. pyogenes; assessed after 6 h incubation
  MIC: >1 µM
S. pyogenes; assessed after 18 h incubation
  MIC: >1 µM
MC
  IC50: > 1000 nM
S. aureus; assessed after 6 h incubation
  MIC: ~1 µM
S. aureus; assessed after 18 h incubation
  MIC: >1 µM
S. aureus; wild-type S. aureus
  antimicrobial activity: detectable antimicrobial activity
C. albicans
  IC50: > 1000 nM
Jurk
  IC50: > 1000 nM
Y. pestis; assessed after 6 h incubation
  MIC: >1 µM
Y. pestis; assessed after 18 h incubation
  MIC: >1 µM
He
  IC50: > 1000 nM
[1]; assessed after 6 h incubation
  MIC: ~
[1]; assessed after 18 h incubation
  MIC: >1 µM
[1]; methicillin-resistant S. aureus (MRSA)
  antimicrobial activity: detectable antimicrobial activity
A. baumanii; assessed after 6 h incubation
  MIC: >1 µM
A. baumanii; assessed after 18 h incubation
  MIC: >1 µM
P. aeruginosa; assessed after 6 h incubation
  MIC: >1 µM
P. aeruginosa; assessed after 18 h incubation
  MIC: >1 µM
T. cruzi (ATCC 30013)
  IC50: > 1000 nM
